Test results reported in article PMC10249096, “Design, Synthesis, and Evaluation of a New Series of Hydrazones as Small-Molecule Akt Inhibitors for NSCLC Therapy” (ACS Omega, 2023).
Read-outs that look alike come from different tables or passages of the source.

Legend:
Akt = Akt Colorimetric In-Cell ELISA, Akt inhibition in A549 cells; format: cell-based, human; conditions: 24 h; for IC50: A549 cell line, mean ± SD, triplicate, read-out: Akt inhibitory effect IC50
Experimental: The assay was performed in triplicate. IC50 data (μM) were expressed as mean ± SD.

[1] = tested on: A549 human lung adenocarcinoma cells; experiment: MTT test, cytotoxicity on A549 cells; format: cell-based; conditions: triplicate, read-out: IC50 A549 cell line
Experimental: (§1) A549 and L929 cell lines were purchased from American Type Culture Collection (Manassas, VA, USA). Cells were cultured, and drug treatments were performed as previously explained.[46]
(§2) MTT assay was conducted as previously described[47] with slight modifications.[48] Cisplatin was used as a positive control. The assay was performed in triplicate. Half-maximal inhibitory concentration (IC50) data (μM) were expressed as mean ± SD.

A549 cells = experiment: Annexin V FITC/PI flow cytometric analysis of apoptosis; conditions: 24 h, each agent at its IC50 (3a 91.35, 3e 176.23, 3g 46.60, 3i 83.59, cisplatin 23.89 μM)
[2] = tested on: L929 mouse embryonic fibroblast cells; experiment: MTT test, cytotoxicity on L929 cells; format: cell-based; conditions: mean ± SD, triplicate, read-out: IC50 L929 cell line
Experimental: as §1, §2

SMILES	melting point [°C]	IC50 (Akt) [µM]	IC50 ([1]; mean ± SD) [µM]	early apoptosis (%) (A549 cells)	late apoptosis (%) (A549 cells)	necrosis (%) (A549 cells)	IC50 [2] [µM]	IC50 ([1]; Homo sapiens, A549, mean ± SD) [µM]	Akt inhibition (Akt; A549 cells, at 91.35 μM) [%]	inhibitory effect on Akt (in words) (Akt; A549 cells, 11.65, 23.30 and 46.60 μM)
N.N.[Cl][Pt][Cl] [Cisplatin, reference compound]		8.09 ± 0.63	23.9 ± 2.71	3.61	3.14	0.98				
CCN(CC)c1ccc(C=NNC(=O)CSc2nc3cc(Cl)ccc3o2)cc1 [Compound 3b, N′-(4-Diethylaminobenzylidene)-2-[(5-chlorobenzoxazol-2-yl)thio]acetohydrazide]	172 to 173						> 500	410 ± 220		
O=C(CSc1nc2cc(Cl)ccc2o1)NN=Cc1ccc(N(CCCl)CCCl)cc1 [Compound 3c, N′-[4-(Bis(2-chloroethyl)amino)benzylidene]-2-[(5-chlorobenzoxazol-2-yl)thio]acetohydrazide]	155 to 156						> 500	> 500		
O=C(CSc1nc2cc(Cl)ccc2o1)NN=Cc1ccc([N+](=O)[O-])cc1 [Compound 3d, N′-(4-Nitrobenzylidene)-2-[(5-chlorobenzoxazol-2-yl)thio]acetohydrazide]	237 to 239						> 500	> 500		
O=C(CSc1nc2cc(Cl)ccc2o1)NN=Cc1ccc(N2CCCCC2)cc1 [Compound 3e, N′-[4-(Piperidin-1-yl)benzylidene]-2-[(5-chlorobenzoxazol-2-yl)thio]acetohydrazide]		106 ± 53.7		3.26	1.76	3.79	> 500	176 ± 56.5		
O=C(CSc1nc2cc(Cl)ccc2o1)NN=Cc1ccc(N2CCOCC2)cc1 [Compound 3f, N′-[4-(Morpholin-4-yl)benzylidene]-2-[(5-chlorobenzoxazol-2-yl)thio]acetohydrazide]	209 to 210						> 500	251 ± 45.9		
CN1CCN(c2ccc(C=NNC(=O)CSc3nc4cc(Cl)ccc4o3)cc2)CC1 [Compound 3g, N′-[4-(4-Methylpiperazin-1-yl)benzylidene]-2-[(5-chlorobenzoxazol-2-yl)thio]acetohydrazide]	178 to 179			7.13	12.17	0.78	277 ± 28.9	46.6 ± 6.15		did not exert any inhibitory effect
CCn1c(-c2nonc2N)nc2c(C#CC(C)(C)O)ncc(OC[C@H]3CCCNC3)c21 [GSK690693, reference compound]		5.93 ± 1.2								

Second part, led by results:

melting point [°C]	SMILES	IC50 (Akt) [µM]	IC50 ([1]; mean ± SD) [µM]	early apoptosis (%) (A549 cells)	late apoptosis (%) (A549 cells)	necrosis (%) (A549 cells)	IC50 [2] [µM]	IC50 ([1]; Homo sapiens, A549, mean ± SD) [µM]	Akt inhibition (Akt; A549 cells, at 91.35 μM) [%]	inhibitory effect on Akt (in words) (Akt; A549 cells, 11.65, 23.30 and 46.60 μM)
159 to 161	NNC(=O)CSc1nc2cc(Cl)ccc2o1 [Compound 2, 2-[(5-Chlorobenzoxazol-2-yl)thio]acetohydrazide]						> 500	> 500		
197 to 199	CN(C)c1ccc(C=NNC(=O)CSc2nc3cc(Cl)ccc3o2)cc1 [Compound 3a, N′-(4-Dimethylaminobenzylidene)-2-[(5-chlorobenzoxazol-2-yl)thio]acetohydrazide]			11.22	4.97	0.79	> 500	91.4 ± 21.9	35.40 ± 13.36	
206 to 207	O=C(CSc1nc2cc(Cl)ccc2o1)NN=Cc1ccc(N2CCCC2)cc1 [Compound 3h, N′-[4-(Pyrrolidin-1-yl)benzylidene]-2-[(5-chlorobenzoxazol-2-yl)thio]acetohydrazide]						> 500	> 500		
229 to 231	O=C(CSc1nc2cc(Cl)ccc2o1)NN=Cc1ccc(-n2ccnc2)cc1 [Compound 3i, N′-[4-(1H-Imidazol-1-yl)benzylidene]-2-[(5-chlorobenzoxazol-2-yl)thio]acetohydrazide]	69.5 ± 1.48		2.70	6.04	3.51	> 500	83.6 ± 7.3		
256 to 257	O=C(CSc1nc2cc(Cl)ccc2o1)NN=Cc1ccc(-n2cncn2)cc1 [Compound 3j, N′-[4-(1H-1,2,4-Triazol-1-yl)benzylidene]-2-[(5-chlorobenzoxazol-2-yl)thio]acetohydrazide]						> 500	> 500		
